Measurements reported in patent publication US20070231406A1, “Use of gallium to treat biofilm-associated infections” (priority 2006, published 2007).
Like-named read-outs stand apart in the source and are kept apart here.

Experiments:
[1] = tested on: P. aeruginosa Xen 5; type: in vivo, Pseudomonas aeruginosa
Procedure: (§1) Catheter-associated UTI with Pseudomonas aeruginosa Xen5 (10^6 CFU/catheter) in CF-1 female mice was established as described by Kadurugamuwa et al. (2005) Infection and Immunity 73(7):3878-87). Gallium maltolate (GaM) was assessed for efficacy against urinary tract infection (UTI) by P. aeruginosa, alone or in combination with ciprofloxacin (cipro) using bioluminescent engineered P. aeruginosa Xen5 in a CF-1 female mice UTI model that allows real time monitoring of infection with the Xenogen IVIS® Imaging System.
(§2) Catheter-associated UTI with P. aeruginosa (10^6 colony forming units (CFU)/catheter) were established in mice and treated 2 days after infection for 4 consecutive days with GaM alone; or cipro alone; or the combination of GaM and cipro. A second cycle of treatment was started on days 9-11 and the study terminated on day 21. Controls included saline-treated uninfected and infected animals.

[2] = tested on: P. aeruginosa Xen5; type: in vivo, Pseudomonas aeruginosa
Procedure: as §1, §2

[3] = tested on: Pseudomonas aeruginosa Xen5; experiment: Biophotonic monitoring of catheter-associated UTI with bioluminescent P. aeruginosa Xen5 in CF-1 female mice; type: in vivo
Procedure: as §1, §2
Ciprofloxacin US Pharmacopeia, Rockville, Md.) and gallium maltolate were administered by oral gavage. Ciprofloxacin was given in 0.2 mL of water and gallium maltolate in 0.2 mL water containing 1% carboxylmethyl cellulose. A second group of animals served as an untreated infection control group by being implanted with infected catheters and treated with saline. In another control group, animals were implanted with sterile catheters and served as a negative control.
Therapeutic agents were readministered for 3 consecutive days, after 4 days of cessation of the initial 4-day therapy.

[4] = Pharmacokinetics of serum gallium (ICP-MS) after oral gallium maltolate in female CF-1 mice; type: in vivo; details: 30 and 300 mg/kg oral gavage q.d. for 4 days
Procedure: Adult, female CF-1 mice (initial weight range 32-39 gram) were treated with 30 and 300 mg/kg gallium maltolate by oral gavage q.d. for 4 consecutive days. Both doses were administered in the same volume of drug solution, i.e., 480 μL of 2.5 and 25 mg/mL gallium maltolate in 1% carboxyl methylcellulose. Blood was drawn at the following time points after the final dose administration: 0, 0.5, 1 3, 6, 9, 12, 24, 33 and 48 hours. Blood drawn at time point ‘0’ was taken immediately after dosing. Blood samples were collected within ±5% of the scheduled time point. Whole blood (500 to 1000 μL) was drawn from a single mouse by cardiac puncture, and four mice were sacrificed per time point for each dosing group. After blood collection, the specimens were held at room temperature to allow for clot formation followed by centrifugation to obtain serum. The concentration of gallium in 100 μL serum was determined by Inductively Coupled Plasma—Mass Spectrometry (ICP-MS).
After a weighted linear regression analysis calibration curve had been established and validated by quality control analysis, serum gallium concentrations in the samples were measured and the results plotted.

[5] = 7 days after infection, ciprofloxacin 30 mg/kg b.i.d. oral
[6] = 11 days after infection, ciprofloxacin 30 mg/kg b.i.d. oral
[7] = 14 days after infection, ciprofloxacin 30 mg/kg b.i.d. oral
[8] = 16 days after infection, ciprofloxacin 30 mg/kg b.i.d. oral
[9] = 17 days after infection, ciprofloxacin 30 mg/kg b.i.d. oral
[10] = 21 days after infection, ciprofloxacin 30 mg/kg b.i.d. oral
[11] = ciprofloxacin 30 mg/kg b.i.d. oral
[12] = 7 days after infection, gallium maltolate 300 mg/kg q.d. oral
[13] = 11 days after infection, gallium maltolate 30 mg/kg q.d. oral
[14] = 11 days after infection, gallium maltolate 100 mg/kg q.d. oral
[15] = 11 days after infection, gallium maltolate 300 mg/kg q.d. oral
[16] = 14 days after infection, gallium maltolate 300 mg/kg q.d. oral
[17] = 16 days after infection, gallium maltolate 30 mg/kg q.d. oral
[18] = 16 days after infection, gallium maltolate 100 mg/kg q.d. oral
[19] = 16 days after infection, gallium maltolate 300 mg/kg q.d. oral
[20] = 17 days after infection, gallium maltolate 30 mg/kg q.d. oral
[21] = 17 days after infection, gallium maltolate 100 mg/kg q.d. oral
[22] = 17 days after infection, gallium maltolate 300 mg/kg q.d. oral
[23] = 21 days after infection, gallium maltolate 30 mg/kg q.d. oral
[24] = 21 days after infection, gallium maltolate 100 mg/kg q.d. oral
[25] = 21 days after infection, gallium maltolate 300 mg/kg q.d. oral
[26] = gallium maltolate 30 mg/kg q.d. oral
[27] = gallium maltolate 100 mg/kg q.d. oral
[28] = gallium maltolate 300 mg/kg q.d. oral

O=C(O)c1cn(C2CC2)c2cc(N3CCNCC3)c(F)cc2c1=O [Ciprofloxacin, reference compound]
Bacterial counts in urine, Geometric Mean [1, 5]: 3.3 × 10^3 CFU/ml
Range of bacterial counts in urine [1, 5]: 2.0 × 10^2-7.0 × 10^5 CFU/ml
Bacterial counts in urine, Geometric Mean [1, 6]: 2.0 × 10^2 CFU/ml
Range of bacterial counts in urine [1, 6]: 2.0 × 10^2 CFU/ml
Bacterial counts in urine, Geometric Mean [1, 7]: 1.1 × 10^5 CFU/ml
Range of bacterial counts in urine [1, 7]: 2.0 × 10^2-1.2 × 10^7 CFU/ml
Bacterial counts in urine, Geometric Mean [1, 8]: 3.2 × 10^4 CFU/ml
Range of bacterial counts in urine [1, 8]: 2.0 × 10^2-6.0 × 10^5 CFU/ml
Bacterial counts in urine, Geometric Mean [1, 9]: 1.2 × 10^5 CFU/ml
Range of bacterial counts in urine [1, 9]: 2.0 × 10^2-8.0 × 10^6 CFU/ml
Bacterial counts in urine, Geometric Mean [1, 10]: 2.2 × 10^5 CFU/ml
Range of bacterial counts in urine [1, 10]: 2.0 × 10^2-3.6 × 10^7 CFU/ml
% Mortality [2, 11]: 12.5%
No. of animals with a kidney signal at day 21/Total no. of animals [2, 11]: 1/7
Percent bacterial growth in animals compared to untreated control ([3]; Day 2, ciprofloxacin 30 mg/kg b.i.d. oral): 100%
Percent bacterial growth in animals compared to untreated control ([3]; Day 5, ciprofloxacin 30 mg/kg b.i.d. oral): 3%
Percent bacterial growth in animals compared to untreated control ([3]; Day 8, ciprofloxacin 30 mg/kg b.i.d. oral): 9%
Percent bacterial growth in animals compared to untreated control ([3]; Day 10, ciprofloxacin 30 mg/kg b.i.d. oral): 2%
Percent bacterial growth in animals compared to untreated control ([3]; Day 15, ciprofloxacin 30 mg/kg b.i.d. oral): 138%
Percent bacterial growth in animals compared to untreated control ([3]; Day 21, ciprofloxacin 30 mg/kg b.i.d. oral): 272%
Bioluminescent signal after discontinuing first ciprofloxacin treatment ([3]; approximately two days after discontinuing the initial 4-day therapy): reestablishment of the infection upon cessation of antibiotic therapy
Bioluminescent signal in the bladder compared to untreated control ([3]; ciprofloxacin 30 mg/kg b.i.d., after four days of treatments): rapid decline in bioluminescent signal to almost nearly to undetectable levels
Bioluminescence signal on re-administration of antibiotic ([3]; re-administration for three consecutive days): repeat decline in the bioluminescence signal
Infection after discontinuation of second bout of ciprofloxacin treatment ([3]; soon after discontinuation of second treatment cycle): infection re-established once again and approximately reached untreated levels

Cc1occc(=O)c1[O-].Cc1occc(=O)c1[O-].Cc1occc(=O)c1[O-].[Ga+3] [Gallium maltolate, gallium maltolate]
Bacterial counts in urine, Geometric Mean [1, 12]: 3.0 × 10^5 CFU/ml
Range of bacterial counts in urine [1, 12]: 1.3 × 10^5-1.5 × 10^6 CFU/ml
Bacterial counts in urine, Geometric Mean [1, 13]: 1.5 × 10^5 CFU/ml
Range of bacterial counts in urine [1, 13]: 1.2 × 10^5-1.8 × 10^5 CFU/ml
Bacterial counts in urine, Geometric Mean [1, 14]: 4.6 × 10^4 CFU/ml
Range of bacterial counts in urine [1, 14]: 2.0 × 10^2-6.0 × 10^6 CFU/ml
Bacterial counts in urine, Geometric Mean [1, 15]: 1.1 × 10^5 CFU/ml
Range of bacterial counts in urine [1, 15]: 2.2 × 10^4-6.2 × 10^5 CFU/ml
Bacterial counts in urine, Geometric Mean [1, 16]: 2.3 × 10^5 CFU/ml
Range of bacterial counts in urine [1, 16]: 1.2 × 10^5-6.0 × 10^5 CFU/ml
Bacterial counts in urine, Geometric Mean [1, 17]: 2.4 × 10^5 CFU/ml
Range of bacterial counts in urine [1, 17]: 1.2 × 10^5-6.0 × 10^5 CFU/ml
Bacterial counts in urine, Geometric Mean [1, 18]: 1.1 × 10^4 CFU/ml
Range of bacterial counts in urine [1, 18]: 2.0 × 10^2-3.0 × 10^6 CFU/ml
Bacterial counts in urine, Geometric Mean [1, 19]: 5.8 × 10^5 CFU/ml
Range of bacterial counts in urine [1, 19]: 3.2 × 10^5-8 × 10^5 CFU/ml
Bacterial counts in urine, Geometric Mean [1, 20]: 1.6 × 10^5 CFU/ml
Range of bacterial counts in urine [1, 20]: 4.0 × 10^4-6.0 × 10^5 CFU/ml
Bacterial counts in urine, Geometric Mean [1, 21]: 2.9 × 10^4 CFU/ml
Range of bacterial counts in urine [1, 21]: 2.0 × 10^2-2.0 × 10^6 CFU/ml
Bacterial counts in urine, Geometric Mean [1, 22]: 3.2 × 10^5 CFU/ml
Range of bacterial counts in urine [1, 22]: 4.0 × 10^4-1.6 × 10^6 CFU/ml
Bacterial counts in urine, Geometric Mean [1, 23]: 1.6 × 10^5 CFU/ml
Range of bacterial counts in urine [1, 23]: 1.2 × 10^4-2.0 × 10^6 CFU/ml
Bacterial counts in urine, Geometric Mean [1, 24]: 8.2 × 10^3 CFU/ml
Range of bacterial counts in urine [1, 24]: 2.0 × 10^2-1.4 × 10^6 CFU/ml
Bacterial counts in urine, Geometric Mean [1, 25]: 3.1 × 10^5 CFU/ml
Range of bacterial counts in urine [1, 25]: 1.6 × 10^5-5.6 × 10^6 CFU/ml
Kidney infections at the termination of the study ([2]; at all doses tested, day 21): free of kidney infections
% Mortality [2, 26]: 25.0%
No. of animals with a kidney signal at day 21/Total no. of animals [2, 26]: 0/3
% Mortality [2, 27]: 25.0%
No. of animals with a kidney signal at day 21/Total no. of animals [2, 27]: 0/3
% Mortality [2, 28]: 0.0%
No. of animals with a kidney signal at day 21/Total no. of animals [2, 28]: 0/4
Initial half-life of elimination of serum gallium [4]: 8 to 12 h
Time of peak serum gallium concentration ([4]; after final dose): within half hour
Percent bacterial growth in animals compared to untreated control ([3]; Day 2, gallium maltolate 30 mg/kg q.d. oral): 100%
Percent bacterial growth in animals compared to untreated control ([3]; Day 2, gallium maltolate 100 mg/kg q.d. oral): 100%
Percent bacterial growth in animals compared to untreated control ([3]; Day 2, gallium maltolate 300 mg/kg q.d. oral): 100%
Percent bacterial growth in animals compared to untreated control ([3]; Day 5, gallium maltolate 30 mg/kg q.d. oral): 60%
Percent bacterial growth in animals compared to untreated control ([3]; Day 5, gallium maltolate 100 mg/kg q.d. oral): 33%
Percent bacterial growth in animals compared to untreated control ([3]; Day 5, gallium maltolate 300 mg/kg q.d. oral): 19%
Percent bacterial growth in animals compared to untreated control ([3]; Day 8, gallium maltolate 30 mg/kg q.d. oral): 10%
Percent bacterial growth in animals compared to untreated control ([3]; Day 8, gallium maltolate 100 mg/kg q.d. oral): 12%
Percent bacterial growth in animals compared to untreated control ([3]; Day 8, gallium maltolate 300 mg/kg q.d. oral): 7%
Percent bacterial growth in animals compared to untreated control ([3]; Day 10, gallium maltolate 30 mg/kg q.d. oral): 13%
Percent bacterial growth in animals compared to untreated control ([3]; Day 10, gallium maltolate 100 mg/kg q.d. oral): 2%
Percent bacterial growth in animals compared to untreated control ([3]; Day 10, gallium maltolate 300 mg/kg q.d. oral): 4%
Percent bacterial growth in animals compared to untreated control ([3]; Day 15, gallium maltolate 30 mg/kg q.d. oral): 54%
Percent bacterial growth in animals compared to untreated control ([3]; Day 15, gallium maltolate 100 mg/kg q.d. oral): 11%
Percent bacterial growth in animals compared to untreated control ([3]; Day 15, gallium maltolate 300 mg/kg q.d. oral): 20%
Percent bacterial growth in animals compared to untreated control ([3]; Day 21, gallium maltolate 30 mg/kg q.d. oral): 22%
Percent bacterial growth in animals compared to untreated control ([3]; Day 21, gallium maltolate 100 mg/kg q.d. oral): 1%
Percent bacterial growth in animals compared to untreated control ([3]; Day 21, gallium maltolate 300 mg/kg q.d. oral): 8%
Recurrence of infection after termination of administration ([3]; gallium maltolate 300 mg/kg): recurrence of high levels of infection did not occur
Bioluminescence signal level ([3]; gallium maltolate 300 mg/kg, remained until termination on day 21): approximately 10^5 photons/catheter
Antibacterial growth activity compared to untreated control ([3]; gallium maltolate 30 and 100 mg/kg): showed antibacterial growth activity
